US6458770B1, “Parenteral formulations comprising carbamazepine or its derivatives” (Novartis AG, priority 1997, dated 2002)

Experiment: Solubility of the active agent in water
Format: physicochemical
Details: 25° C., pH of 5.8 to 6.0
Procedure: A wide range of container sizes may be employed. Container size may be conveniently categorised as Low-Volume, i.e. 100 ml or less and High-Volume, i.e. above 100 ml and typically 250 ml. […] parenteral formulations could of course be employed but this may require the use of an organic co-solvent or other solubilising aid which is less desirable than a totally water-based formulation.

solubility in water: 3200 to 4200 µg/mL
Compound: NC(=O)N1c2ccccc2CC(O)c2ccccc21 (stereo not shown) [COMPOUND A, 10-hydroxy-10,11-tetrahydrocarbamazepine]
